According to patent US3983105A, “Penicillins” (Bayer Aktiengesellschaft, priority 1971, dated 1976):
Values joined by “and” are separate entries in the source; they are usually repeats but may differ in a detail not shown here. Identical values can stand only once. Like-named read-outs stand apart in the source and are kept apart here.

How the values were obtained:
Proteus morganii = assay: MIC, test tube serial dilution, Proteus morganii; type: cell-based
Serratia marcescens = assay: MIC, test tube serial dilution, Serratia marcescens; type: cell-based
Proteus mirabilis = assay: MIC, test tube serial dilution, Proteus mirabilis; type: cell-based
Klebsiella-Aerobacter [1] = assay: MIC, test tube serial dilution, Klebsiella-Aerobacter; type: cell-based
Escherichia coli = assay: MIC, test tube serial dilution, Escherichia coli; type: cell-based
Pseudomonas aeruginosa = assay: MIC, test tube serial dilution, Pseudomonas aeruginosa; type: cell-based
Proteus vulgaris = assay: MIC, test tube serial dilution, Proteus vulgaris; type: cell-based
Streptococcus faecalis = assay: MIC, test tube serial dilution, Streptococcus faecalis; type: cell-based
Staphylococcus aureus = assay: MIC, test tube serial dilution, Staphylococcus aureus; type: cell-based
Haemophilus influenzae = assay: MIC, test tube serial dilution, Haemophilus influenzae; type: cell-based
Proteus rettgeri = assay: MIC, test tube serial dilution, Proteus rettgeri; type: cell-based
Klebsiella-Aerobacter [2] = conditions: in vivo; cited from earlier work
Providencia = assay: MIC, test tube serial dilution, Providencia; type: cell-based
in vivo = conditions: mouse, iv
[3] = strain 1756 (BRL 1 756), 24 hours, 37°C

## CC1(C)S[C@@H]2[C@H](NC(=O)C(C(=O)O)c3ccccc3)C(=O)N2[C@H]1C(=O)O (stereo partly drawn) [Carbenicillin, reference compound]
Proteus morganii; strain 1 102
  MIC: > 800 U/ml
Proteus morganii; strain 932, 24 hours, 37°C
  MIC: 6 U/ml
Serratia marcescens; strain 3
  MIC: 400 U/ml
Serratia marcescens; strain 7
  MIC: 100 U/ml
Serratia marcescens; strain 9
  MIC: 6 U/ml
Serratia marcescens; strain 13
  MIC: 6 U/ml
Serratia marcescens; strain K
  MIC: 6 U/ml
Proteus mirabilis; Sp.
  MIC: 1.6 U/ml
Proteus mirabilis; strain 605
  MIC: 400 U/ml
Proteus mirabilis; strain G.
  MIC: 1.6 U/ml
Klebsiella-Aerobacter [1]; aerogenes 418
  MIC: 400 U/ml
Klebsiella-Aerobacter [1]; strain 60
  MIC: 100 U/ml
Klebsiella-Aerobacter [1]; strain 62
  MIC: 100 U/ml
Klebsiella-Aerobacter [1]; strain 63, 24 hours, 37°C
  MIC: 400 U/ml
Klebsiella-Aerobacter [1]; strain 69
  MIC: > 400 U/ml
Klebsiella-Aerobacter [1]; strain 70
  MIC: 400 U/ml
Klebsiella-Aerobacter [1]; strain 75
  MIC: > 400 U/ml
Klebsiella-Aerobacter [1]; strain 1852
  MIC: > 400 U/ml
Klebsiella-Aerobacter [1]; strain 1871
  MIC: 400 U/ml
Klebsiella-Aerobacter [1]; strain K 10, 24 hours, 37°C
  MIC: > 400 U/ml
Escherichia coli; strain 14, 24 hours, 37°C
  MIC: 1.6 U/ml
Escherichia coli; strain 1465
  MIC: > 400 U/ml
Escherichia coli; strain A 261, 24 hours, 37°C
  MIC: 400 U/ml
Escherichia coli; strain B 94
  MIC: 1.6 U/ml
Escherichia coli; strain N
  MIC: 6 U/ml
Escherichia coli; strain S
  MIC: 400 U/ml
Escherichia coli; strain T 7
  MIC: > 400 U/ml
Escherichia coli; strain T 20/2
  MIC: > 400 U/ml
Pseudomonas aeruginosa; strain A
  MIC: 25 U/ml
Pseudomonas aeruginosa; strain Bonn, 24 hours, 37°C
  MIC: 200 U/ml
Pseudomonas aeruginosa; strain E 27 500
  MIC: 100 U/ml
Pseudomonas aeruginosa; strain F 41, 24 hours, 37°C
  MIC: 100 U/ml
Pseudomonas aeruginosa; strain V 10 797
  MIC: 50 U/ml
Pseudomonas aeruginosa; strain V 10 818
  MIC: 100 U/ml
Pseudomonas aeruginosa; strain V 10 887
  MIC: 100 U/ml
Pseudomonas aeruginosa; strain V 10 900
  MIC: 50 U/ml
Pseudomonas aeruginosa; strain Walter, 24 hours, 37°C
  MIC: 100 U/ml
Proteus vulgaris; strain 3 400
  MIC: 50 U/ml
Streptococcus faecalis; strain 8 698
  MIC: 100 U/ml
Streptococcus faecalis; strain 8 709
  MIC: 200 U/ml
Streptococcus faecalis; strain 8 711
  MIC: 50 U/ml
Staphylococcus aureus; strain P 209
  MIC: < 0.8 U/ml
Staphylococcus aureus; strain SG 511
  MIC: < 0.8 U/ml
Haemophilus influenzae; strain 2 689
  MIC: 1.6 U/ml
Haemophilus influenzae; strain 2 718
  MIC: 0.8 U/ml
Haemophilus influenzae; strain 2 786
  MIC: 1.6 U/ml
Haemophilus influenzae; strain 2 788
  MIC: < 0.4 U/ml
Proteus rettgeri; Sp.
  MIC: 1.6 U/ml
Proteus rettgeri; strain 1 050
  MIC: > 400 U/ml
Proteus rettgeri; strain 824
  MIC: > 400 U/ml
Klebsiella-Aerobacter [2]
  effectiveness against infections: only effective in man in the case of infections caused by Klebsiella-Aerobacter if administered in a continuous high dosage
Providencia; strain 930
  MIC: 6 U/ml

## CC1(C)S[C@@H]2[C@H](NC(=O)[C@H](NC(=O)N3CCN(S(C)(=O)=O)C3=O)c3ccccc3)C(=O)N2[C@H]1C(=O)O [Example 4, Sodium D(-)-α-[(3-methylsulphonyl-imidazolidin-2-on-1-yl)-carbonylamino]-benzylpencillin]
Proteus morganii; Sp.
  MIC: 3 U/ml
Proteus morganii; strain 1 102
  MIC: 200 U/ml
Serratia marcescens; strain 2
  MIC: 1.6 U/ml
Serratia marcescens; strain 3
  MIC: 12.5 U/ml
Serratia marcescens; strain 4
  MIC: 1.6 U/ml
Serratia marcescens; strain 6
  MIC: 1.6 U/ml
Serratia marcescens; strain 7
  MIC: 1.6 U/ml
Serratia marcescens; strain 9
  MIC: < 0.8 U/ml
Serratia marcescens; strain 13
  MIC: < 0.8 U/ml
Serratia marcescens; strain K
  MIC: < 0.8 U/ml
Proteus mirabilis; Sp.
  MIC: 1.6 U/ml
Proteus mirabilis; strain 1 235
  MIC: 1.6 U/ml
Proteus mirabilis; strain 605
  MIC: 3 U/ml
Proteus mirabilis; strain G.
  MIC: < 0.4 U/ml
Klebsiella-Aerobacter [1]
  MIC: < 0.8 U/ml
Klebsiella-Aerobacter [1]; aerogenes 418
  MIC: 3 U/ml
Klebsiella-Aerobacter [1]; strain 62
  MIC: 1.6 U/ml
Klebsiella-Aerobacter [1]; strain 63, 24 hours, 37°C
  MIC: 4 - 16 U/ml
Klebsiella-Aerobacter [1]; strain 69
  MIC: 1.6 U/ml
Klebsiella-Aerobacter [1]; strain 70
  MIC: 3 U/ml
Klebsiella-Aerobacter [1]; strain 75
  MIC: 6 U/ml
Klebsiella-Aerobacter [1]; strain 1852
  MIC: > 400 U/ml
Klebsiella-Aerobacter [1]; strain 1871
  MIC: 6 U/ml
Klebsiella-Aerobacter [1]; strain K 10, 24 hours, 37°C
  MIC: 4 - 16 U/ml
Escherichia coli; strain 26/6
  MIC: < 0.8 U/ml
Escherichia coli; strain 55 B 5
  MIC: < 0.8 U/ml
Escherichia coli; strain 183/58, 24 hours, 37°C
  MIC: 1 - 4 U/ml
Escherichia coli; strain 1465
  MIC: > 400 U/ml
Escherichia coli; strain A 261, 24 hours, 37°C
  MIC: 32 - 64 U/ml
Escherichia coli; strain B
  MIC: < 0.8 U/ml
Escherichia coli; strain B 94
  MIC: < 0.8 U/ml
Escherichia coli; strain C 165, 24 hours, 37°C
  MIC: 1 - 4 U/ml
Escherichia coli; strain N
  MIC: 1.6 U/ml
Escherichia coli; strain S
  MIC: 32 U/ml
Escherichia coli; strain T 7
  MIC: > 400 U/ml
Escherichia coli; strain T 20/2
  MIC: > 400 U/ml
Pseudomonas aeruginosa; strain A
  MIC: 12.5 U/ml
Pseudomonas aeruginosa; strain Bonn, 24 hours, 37°C
  MIC: 16 - 32 U/ml
Pseudomonas aeruginosa; strain E 27 500
  MIC: 12.5 U/ml
Pseudomonas aeruginosa; strain V 10 797
  MIC: 12.5 U/ml
Pseudomonas aeruginosa; strain V 10 818
  MIC: 25 U/ml
Pseudomonas aeruginosa; strain V 10 887
  MIC: 12.5 U/ml
Pseudomonas aeruginosa; strain V 10 900
  MIC: 12.5 U/ml
Pseudomonas aeruginosa; strain Walter, 24 hours, 37°C
  MIC: 4-16 U/ml
Proteus vulgaris; strain 3 400
  MIC: 6 U/ml
Proteus vulgaris; strain 1017, 24 hours, 37°C
  MIC: 1.6 U/ml
Streptococcus faecalis; ATCC 9790, 24 hours, 37°C
  MIC: 16-32 U/ml
Streptococcus faecalis; strain 8 698
  MIC: 1.6 U/ml
Streptococcus faecalis; strain 8 709
  MIC: 12.5 U/ml
Streptococcus faecalis; strain 8 711
  MIC: 3 U/ml
Staphylococcus aureus
  MIC: 200 U/ml
Staphylococcus aureus; [3]
  MIC: 64-256 U/ml
Staphylococcus aureus; strain P 209
  MIC: < 0.8 U/ml
Staphylococcus aureus; strain SG 511
  MIC: < 0.8 U/ml
Haemophilus influenzae; strain 2 684
  MIC: 0.1 U/ml
Haemophilus influenzae; strain 2 689
  MIC: 0.25 U/ml
Haemophilus influenzae; strain 2 718
  MIC: 0.1 U/ml
Haemophilus influenzae; strain 2 786
  MIC: 0.06 U/ml
Haemophilus influenzae; strain 2 788
  MIC: 0.5 U/ml
Proteus rettgeri; Sp.
  MIC: 0.8 U/ml
Proteus rettgeri; strain 1 050
  MIC: > 400 U/ml
Proteus rettgeri; strain 824
  MIC: > 400 U/ml
Providencia; strain 930
  MIC: < 0.8 U/ml
Providencia; strain 933
  MIC: 12.5 U/ml
Providencia; strain 945
  MIC: < 0.8 U/ml

## CNC(=O)N1CCN(C(=O)N[C@@H](C(=O)N[C@@H]2C(=O)N3[C@@H]2SC(C)(C)[C@@H]3C(=O)O)c2ccccc2)C1=O [Example 2, Sodium D(-)-α-[(3-methylaminocarbonyl-imidazolidin-2-on-1-yl)-carbonylamino]-benzylpenicillin]
Proteus morganii; strain 932, 24 hours, 37°C
  MIC: 1.6 U/ml
In vivo
  LD50: 3000 mg/kg
Klebsiella-Aerobacter [1]; strain 63, 24 hours, 37°C
  MIC: 12.5 U/ml and 12 U/ml
Klebsiella-Aerobacter [1]; strain K 10, 24 hours, 37°C
  MIC: 50 U/ml
Escherichia coli; strain 183/58, 24 hours, 37°C
  MIC: 1.6 U/ml
Escherichia coli; strain A 261, 24 hours, 37°C
  MIC: 100 U/ml
Escherichia coli; strain C 165, 24 hours, 37°C
  MIC: 1.6 U/ml
Pseudomonas aeruginosa; strain Bonn, 24 hours, 37°C
  MIC: 50 U/ml
Pseudomonas aeruginosa; strain Walter, 24 hours, 37°C
  MIC: 25 U/ml
Proteus vulgaris; unit assumed
  MIC: 6 µg/mL
Streptococcus faecalis; ATCC 9790, 24 hours, 37°C
  MIC: 50 U/ml
Staphylococcus aureus; strain 133, 24 hours, 37°C
  MIC: < 0.8 U/ml
Staphylococcus aureus; [3]
  MIC: 200 U/ml

## CC1(C)S[C@@H]2[C@H](NC(=O)[C@H](N)c3ccccc3)C(=O)N2[C@H]1C(=O)O [Ampicillin, α-aminobenzylpenicillin, reference compound]
Klebsiella-Aerobacter [1]; Table 3, strain 63
  MIC: 100-200 U/ml
Klebsiella-Aerobacter [1]; Table 3, strain K 10
  MIC: 100-200 U/ml
Escherichia coli; Table 3, strain 183/58
  MIC: 200 U/ml
Escherichia coli; Table 3, strain A 261
  MIC: > 400 U/ml
Escherichia coli; Table 3, strain C 165
  MIC: 6 U/ml
Escherichia coli; strain 183/58, 24 hours, 37°C
  MIC: 200 U/ml
Escherichia coli; strain A 261, 24 hours, 37°C
  MIC: > 400 U/ml
Pseudomonas aeruginosa; Table 3, strain Walter
  MIC: 200 U/ml
Pseudomonas aeruginosa; strain Bonn, 24 hours, 37°C
  MIC: 200 U/ml
Pseudomonas aeruginosa; strain Walter, 24 hours, 37°C
  MIC: 200 U/ml
Proteus vulgaris; Table 3, strain 1017
  MIC: 400 U/ml
Proteus vulgaris; strain 1017, 24 hours, 37°C
  MIC: 400 U/ml
Staphylococcus aureus; Table 3, strain 133
  MIC: < 1 U/ml
Klebsiella-Aerobacter [2]
  effectiveness against infections: not able to combat infections
